Measurements from ChEMBL document CHEMBL1909046, “DrugMatrix in vitro pharmacology data”.

Tests used:
[1] = target: Beta-2 adrenergic receptor (Homo sapiens, UniProt P07550); assay: DRUGMATRIX: Adrenergic beta2 radioligand binding (ligand: [3H] CGP-12177); format: cell membranes, CHO, Membrane; conditions: cho; Not Active = under 50% inhibition at 10 µM
[2] = DRUGMATRIX: Sigma2 radioligand binding (ligand: [3H] Ifenprodil); format: cell membranes, Rattus norvegicus, Wistar, Brain, Membrane; conditions: Not Active = under 50% inhibition at 10 µM
[3] = target: T1, D(4) dopamine receptor (Homo sapiens, UniProt P21917); assay: DRUGMATRIX: Dopamine D4.2 radioligand binding (ligand: [3H] Spiperone); format: cell membranes, CHO-K1, Membrane; conditions: cho-k1; Not Active = under 50% inhibition at 10 µM
T1 sequence (P21917 whole entry): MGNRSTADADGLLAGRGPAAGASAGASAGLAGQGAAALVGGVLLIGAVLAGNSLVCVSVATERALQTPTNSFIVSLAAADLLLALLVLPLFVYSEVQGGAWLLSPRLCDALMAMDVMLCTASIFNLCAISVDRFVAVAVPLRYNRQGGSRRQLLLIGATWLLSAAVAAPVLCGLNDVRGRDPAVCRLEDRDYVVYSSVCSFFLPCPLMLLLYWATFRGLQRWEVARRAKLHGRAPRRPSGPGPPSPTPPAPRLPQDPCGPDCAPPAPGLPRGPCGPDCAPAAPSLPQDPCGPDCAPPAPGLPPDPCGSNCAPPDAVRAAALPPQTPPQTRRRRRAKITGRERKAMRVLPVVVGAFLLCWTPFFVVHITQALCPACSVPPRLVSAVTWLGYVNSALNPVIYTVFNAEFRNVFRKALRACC

[4] = target: Protein kinase C alpha type (Homo sapiens, UniProt P17252); format: cell-based; conditions: sf9;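 further: inhibition of PKCalpha kinase activity measured in an enzyme assay with histone as the phosphorylation substrate; in other assays of this panel Not Active means under 50% inhibition at 10 µM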
[5] = target: Vascular endothelial growth factor receptor 1 (Homo sapiens, UniProt P17948); format: cell-based; conditions: huvec; further: in other assays of this panel Not Active means under 50% inhibition at 10 µM
Vascular endothelial growth factor receptor 1, sequence (P17948 whole entry): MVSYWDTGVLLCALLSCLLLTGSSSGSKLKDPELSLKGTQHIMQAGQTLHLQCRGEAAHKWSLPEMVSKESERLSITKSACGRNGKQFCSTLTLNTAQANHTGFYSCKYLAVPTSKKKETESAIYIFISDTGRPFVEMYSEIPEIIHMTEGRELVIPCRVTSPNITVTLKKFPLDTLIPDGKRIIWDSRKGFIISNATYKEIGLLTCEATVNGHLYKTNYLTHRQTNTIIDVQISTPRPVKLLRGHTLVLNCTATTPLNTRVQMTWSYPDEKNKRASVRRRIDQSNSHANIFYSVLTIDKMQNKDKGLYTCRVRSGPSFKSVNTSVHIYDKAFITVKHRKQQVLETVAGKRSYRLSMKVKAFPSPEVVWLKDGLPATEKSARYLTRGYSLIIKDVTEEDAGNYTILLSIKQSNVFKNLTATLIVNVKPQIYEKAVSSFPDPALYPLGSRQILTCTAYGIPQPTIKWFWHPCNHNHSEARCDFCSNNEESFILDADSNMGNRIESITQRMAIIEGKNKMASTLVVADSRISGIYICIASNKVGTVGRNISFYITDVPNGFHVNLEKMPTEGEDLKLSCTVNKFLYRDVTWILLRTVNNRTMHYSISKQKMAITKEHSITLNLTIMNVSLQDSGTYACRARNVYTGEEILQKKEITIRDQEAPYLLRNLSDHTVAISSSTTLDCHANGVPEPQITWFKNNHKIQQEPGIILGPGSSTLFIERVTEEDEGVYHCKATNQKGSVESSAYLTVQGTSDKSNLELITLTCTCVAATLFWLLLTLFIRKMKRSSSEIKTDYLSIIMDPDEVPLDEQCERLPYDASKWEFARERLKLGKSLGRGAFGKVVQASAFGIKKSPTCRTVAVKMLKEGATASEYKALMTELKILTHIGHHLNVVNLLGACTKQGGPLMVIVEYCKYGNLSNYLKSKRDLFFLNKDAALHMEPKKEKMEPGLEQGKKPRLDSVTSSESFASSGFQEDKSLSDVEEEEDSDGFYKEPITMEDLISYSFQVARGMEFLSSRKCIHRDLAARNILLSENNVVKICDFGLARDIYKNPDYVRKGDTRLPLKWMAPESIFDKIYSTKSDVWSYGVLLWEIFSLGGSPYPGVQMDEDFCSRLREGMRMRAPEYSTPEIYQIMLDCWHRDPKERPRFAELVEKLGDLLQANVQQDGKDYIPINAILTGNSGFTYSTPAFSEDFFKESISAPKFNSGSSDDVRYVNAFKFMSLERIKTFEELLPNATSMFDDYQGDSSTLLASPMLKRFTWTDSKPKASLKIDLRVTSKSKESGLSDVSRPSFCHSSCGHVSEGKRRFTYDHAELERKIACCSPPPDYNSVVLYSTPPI

[6] = DRUGMATRIX: Serotonin (5-Hydroxytryptamine) 5-HT3 radioligand binding (ligand: [3H] GR-65630); format: cell membranes, Membrane; conditions: hek293; Not Active = under 50% inhibition at 10 µM
[7] = target: T2, Alpha-1A adrenergic receptor (Rattus norvegicus, UniProt P43140); assay: DRUGMATRIX: Alpha-1A adrenergic receptor radioligand binding (ligand: prazosin); format: cell membranes, Wistar, Submaxillary gland, Membrane; conditions: Not Active = under 50% inhibition at 10 µM; for Ki: read-out: Ki
T2 sequence (P43140 whole entry): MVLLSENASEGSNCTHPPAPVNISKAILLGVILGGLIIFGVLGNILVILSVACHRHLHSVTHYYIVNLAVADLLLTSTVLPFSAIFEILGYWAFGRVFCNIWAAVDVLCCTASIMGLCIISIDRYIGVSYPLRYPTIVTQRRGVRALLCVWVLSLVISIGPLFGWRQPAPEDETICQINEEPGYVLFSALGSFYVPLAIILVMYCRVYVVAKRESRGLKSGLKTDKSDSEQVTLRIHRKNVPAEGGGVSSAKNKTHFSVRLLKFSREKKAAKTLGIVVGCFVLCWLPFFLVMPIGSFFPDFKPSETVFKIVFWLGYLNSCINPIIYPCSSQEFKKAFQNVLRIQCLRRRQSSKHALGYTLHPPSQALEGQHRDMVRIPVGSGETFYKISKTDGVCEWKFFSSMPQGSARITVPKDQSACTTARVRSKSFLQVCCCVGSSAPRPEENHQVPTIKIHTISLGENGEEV

Beta-2 adrenergic receptor, sequence (P07550 whole entry): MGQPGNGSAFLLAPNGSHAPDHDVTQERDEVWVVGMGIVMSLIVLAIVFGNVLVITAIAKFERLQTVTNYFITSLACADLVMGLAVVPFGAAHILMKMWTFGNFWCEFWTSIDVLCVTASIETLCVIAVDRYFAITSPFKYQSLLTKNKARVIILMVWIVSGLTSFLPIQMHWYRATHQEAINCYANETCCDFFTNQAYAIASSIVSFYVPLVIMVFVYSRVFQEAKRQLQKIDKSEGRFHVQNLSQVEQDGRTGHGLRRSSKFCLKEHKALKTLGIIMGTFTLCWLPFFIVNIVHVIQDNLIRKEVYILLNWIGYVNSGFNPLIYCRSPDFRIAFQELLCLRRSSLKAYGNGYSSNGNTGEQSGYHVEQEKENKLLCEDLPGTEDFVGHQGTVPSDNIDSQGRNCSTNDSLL

SMILES | IC50 [1] | IC50 [2] | Ki [2] | IC50 [3] | IC50 [4] | IC50 [5] | IC50 [6] | Ki [6] | IC50 [7] | IC50 ([2]; read-out: IC50) | Ki ([2]; read-out: Ki) | IC50 ([7]; read-out: IC50) | Ki [7]
CCCCC1=NC2(CCCC2)C(=O)N1Cc1ccc(-c2ccccc2-c2nnn[nH]2)cc1 [IRBESARTAN] | Not Active | Not Active | Not Active | Not Active | Not Active | Not Active | Not Active | Not Active | Not Active |  |  |  | 
CN1CCC(=C2c3ccccc3CC(=O)c3sccc32)CC1 [KETOTIFEN] | Not Active | Not Active | Not Active | Not Active | Not Active | Not Active | Not Active | Not Active | Not Active |  |  |  | 
N[C@@H](Cn1ccc(=O)c(O)c1)C(=O)O [L-MIMOSINE] | Not Active | Not Active | Not Active | Not Active | Not Active | Not Active | Not Active | Not Active | Not Active |  |  |  | 
C[N+](C)(C)C[C@H](O)CC(=O)[O-] [LEVOCARNITINE] | Not Active | Not Active | Not Active | Not Active | Not Active | Not Active | Not Active | Not Active | Not Active |  |  |  | 
C[C@H]1COc2c(N3CCN(C)CC3)c(F)cc3c(=O)c(C(=O)O)cn1c23.C[C@H]1COc2c(N3CCN(C)CC3)c(F)cc3c(=O)c(C(=O)O)cn1c23.O [LEVOFLOXACIN] | Not Active | Not Active | Not Active | Not Active | Not Active | Not Active | Not Active | Not Active | Not Active |  |  |  | 
CCn1cc(C(=O)O)c(=O)c2cc(F)c(N3CCNC(C)C3)c(F)c21 (stereo unspecified) [LOMEFLOXACIN] | Not Active | Not Active | Not Active | Not Active | Not Active | Not Active | Not Active | Not Active | Not Active |  |  |  | 
CN1CCCC(CN2c3ccccc3Sc3ccccc32)C1 (stereo unspecified) [MEPAZINE] | Not Active |  |  | Not Active | Not Active | Not Active | Not Active | Not Active |  | 0.631 µM | 0.388 µM | 0.144 µM | 0.058 µM
Cc1cccc(C)c1NC(=O)C1CCCCN1C (stereo unspecified) [MEPIVACAINE] | Not Active | Not Active | Not Active | Not Active | Not Active | Not Active | Not Active | Not Active | Not Active |  |  |  | 
CN(C)C(=N)NC(=N)N [METFORMIN] | Not Active | Not Active | Not Active | Not Active | Not Active | Not Active | Not Active | Not Active | Not Active |  |  |  | 
CC(C)(C)NCC(O)COc1cccc2c1CC(O)C(O)C2 (stereo unspecified) [NADOLOL] | Not Active | Not Active | Not Active | Not Active | Not Active | Not Active | Not Active | Not Active | Not Active |  |  |  | 
C[C@]12CC[C@H]3[C@@H](CCC4=CC(=O)CC[C@@H]43)[C@@H]1CC[C@@H]2O [NANDROLONE] | Not Active | Not Active | Not Active | Not Active | Not Active | Not Active | Not Active | Not Active | Not Active |  |  |  | 
C[C@@H]1C/C=C/C=C/C=C/C=C/[C@H](O[C@@H]2O[C@H](C)[C@@H](O)[C@H](N)[C@@H]2O)C[C@@H]2O[C@](O)(C[C@@H](O)C[C@H]3O[C@@H]3/C=C/C(=O)O1)C[C@H](O)[C@H]2C(=O)O [NATAMYCIN] | Not Active | Not Active | Not Active | Not Active | Not Active | Not Active | Not Active | Not Active | Not Active |  |  |  | 
CN(C)C(=O)Oc1cccc([N+](C)(C)C)c1.[Br-] [NEOSTIGMINE BROMIDE] | Not Active | Not Active | Not Active | Not Active | Not Active | Not Active | Not Active | Not Active | Not Active |  |  |  | 
NC(=O)c1cccnc1 [NIACINAMIDE] | Not Active | Not Active | Not Active | Not Active | Not Active | Not Active | Not Active | Not Active | Not Active |  |  |  | 
CS(=O)(=O)Nc1ccc([N+](=O)[O-])cc1Oc1ccccc1 [NIMESULIDE] | Not Active | Not Active | Not Active | Not Active | Not Active | Not Active | Not Active | Not Active | Not Active |  |  |  | 
CN1C(=O)CN=C(c2ccccc2)c2cc([N+](=O)[O-])ccc21 [NIMETAZEPAM] | Not Active | Not Active | Not Active | Not Active | Not Active | Not Active | Not Active | Not Active | Not Active |  |  |  | 
COc1ccc2c(c1OC)C(=O)O[C@@H]2[C@H]1c2c(cc3c(c2OC)OCO3)CCN1C [NOSCAPINE] | Not Active | Not Active | Not Active | Not Active | Not Active | Not Active | Not Active | Not Active | Not Active |  |  |  | 
C[C@@H]1O[C@@H](O[C@H]2C[C@@H](O)[C@]3(CO)[C@H]4[C@H](O)C[C@]5(C)[C@@H](C6=CC(=O)OC6)CC[C@]5(O)[C@@H]4CC[C@]3(O)C2)[C@H](O)[C@H](O)[C@H]1O [OUABAIN] | Not Active | Not Active | Not Active | Not Active | Not Active | Not Active | Not Active | Not Active | Not Active |  |  |  | 
NC(=O)N1c2ccccc2CC(=O)c2ccccc21 [OXCARBAZEPINE] | Not Active | Not Active | Not Active | Not Active | Not Active | Not Active | Not Active | Not Active | Not Active |  |  |  | 
COc1ccnc(C[S+]([O-])c2nc3ccc(OC(F)F)cc3[nH]2)c1OC (stereo unspecified) [PANTOPRAZOLE] | Not Active | Not Active | Not Active | Not Active | Not Active | Not Active | Not Active | Not Active | Not Active |  |  |  | 
N=C(N)c1ccc(OCCCCCOc2ccc(C(=N)N)cc2)cc1 [PENTAMIDINE] | Not Active | Not Active | Not Active | Not Active | Not Active | Not Active | Not Active | Not Active |  |  |  | 1.21 µM | 0.491 µM
NNCCc1ccccc1 [PHENELZINE] | Not Active | Not Active | Not Active | Not Active | Not Active | Not Active | Not Active | Not Active | Not Active |  |  |  | 
CCc1ccc(CCOc2ccc(CC3SC(=O)NC3=O)cc2)nc1 (stereo unspecified) [PIOGLITAZONE] | Not Active | Not Active | Not Active | Not Active | Not Active | Not Active | Not Active | Not Active | Not Active |  |  |  | 
CCCNC(C)C(=O)Nc1ccccc1C (stereo unspecified) [PRILOCAINE] | Not Active | Not Active | Not Active | Not Active | Not Active | Not Active | Not Active | Not Active | Not Active |  |  |  | 
CCN(CC)CCNC(=O)c1ccc(N)cc1 [PROCAINAMIDE] | Not Active | Not Active | Not Active | Not Active | Not Active | Not Active | Not Active | Not Active | Not Active |  |  |  | 
CCN(CC)CCCC(C)Nc1c2ccc(Cl)cc2nc2ccc(OC)cc12 (stereo unspecified) [QUINACRINE] | Not Active | Not Active | Not Active | Not Active | Not Active | Not Active | Not Active | Not Active | Not Active |  |  |  | 
